One data set relates to Salmonidae. The data set can be described thus: Binding affinity to salmon sperm DNA assessed as DNA intercalation at 0.04 mole fraction after 5 mins by UV-Vis spectroscopic method.
Data set [1] is described as follows: Cytotoxicity against mouse Sarcoma 180 cells assessed as reduction in cell viability after 72 hrs by MTT assay. It counts as functional, cell-based. The settings on record: Sarcoma-180, 72 h. Background: Tetrazolium assays rely on reduction of a dye to a coloured formazan, in cell work by metabolically active cells.
Data set [2] in a line: Cytotoxicity against mouse NIH/3T3 cells assessed as reduction in cell viability after 72 hrs by MTT assay. It counts as toxicity, cell-based, NIH3T3.
For a further data set, the system named is HeLa S3. The data set is described as follows: Selectivity ratio of IC50 for human HeLaS3 cells to IC50 for mouse Sarcoma 180 cells. It counts as functional.
Data set [3] can be described thus: Selectivity index, ratio of IC50 for mouse NIH/3T3 cells to IC50 for mouse Sarcoma 180 cells. In kind it is functional.
Data set [4] is described as follows: Cytotoxicity against human HeLaS3 cells assessed as reduction in cell viability after 72 hrs by MTT assay. It counts as functional, cell-based. The settings on record: HeLa S3, 72 h.
The nature of data set [5]: Binding affinity to synthetic biotin-labeled 30-mer AT-rich duplex DNA in pH 7.4 EDTA buffer solution in presence of 0.05 M NaCl at 25 degC by QCM sensogram analysis.
A short description of data set [6]: Binding affinity to synthetic biotin-labeled 30-mer GC-rich duplex DNA in pH 7.4 EDTA buffer solution in presence of 0.05 M NaCl at 25 degC by QCM sensogram analysis.
Data set [7] in a line: Binding affinity to synthetic biotin-labeled 30-mer GC-rich duplex DNA in pH 7.4 EDTA buffer solution in presence of 50 mM NaCl at 25 degC by QCM sensogram analysis.
Data set [8] in a line: Binding affinity to synthetic biotin-labeled 30-mer GC-rich duplex DNA in pH 7.4 EDTA buffer solution in presence of 200 mM NaCl at 25 degC by QCM sensogram analysis.
Data set [9] can be described thus: Ratio of Ka for synthetic biotin-labeled 30-mer GC-rich duplex DNA in presence of 200 mM NaCl to Ka for synthetic biotin-labeled 30-mer GC-rich duplex DNA in presence of 50 mM NaCl.

Calls of active or inactive are those of the source. The calls are words filed in the database; no cut-off is given here.

In general, IC50 refers to the concentration that inhibits the measured activity by half.

For `Cc1c2cc[n+](CCOCCN)cc2c(C)c2c1[nH]c1ccc(O)cc12.[Cl-]`, the outcome in the data set with Salmonidae was Active. In data set [1], the concentration for half-maximal inhibition (IC50) came to 1 µM. Moreover, the IC50 at 72 h in [2] is 2.4 µM. Further, the “Ratio IC50” value is reported as 13 - 37 in the data set with HeLa S3 and 3 - 24 in [3].
For `CNC(=O)NCCNC(=O)c1c2ccncc2c(C)c2c1[nH]c1ccccc12`, the result with Salmonidae was Active. For the same compound, the 50% inhibitory concentration (IC50) in data set [1] and in data set [4] was 15 µM each time. Further, the IC50 at 72 h in data set [2] was found to be 11 µM.
Consider `CNC(=O)NCCCCC[n+]1ccc2c(C)c3c(c(C)c2c1)c1cc(O)ccc1n3C`, for which the Ka in data set [5] was 15.8 ×10⁵ /M; in data set [6], 28.5 ×10⁵ /M; in data set [7] it was 28.5 ×10⁵ /M; in data set [8] it was 17.9 ×10⁵ /M. The Ratio in data set [9] lay within 0.4 to 0.5.
With `COC(=O)c1c2cc[n+](CCOCCN)cc2c(C)c2c1[nH]c1ccccc12.[Cl-]`, the outcome with Salmonidae was Active. The IC50 in data set [1] is 1.12 µM. Moreover, in [2], the IC50 at 72 h stood at 1.75 µM. For the same compound, the “Ratio IC50” value with HeLa S3 was 13 - 37; in data set [3] it was 3 - 24.
With `Cc1c2cnccc2c(C(=O)NCCN)c2[nH]c3ccccc3c12`, the result in the data set with Salmonidae was Active. Moreover, the half-maximal inhibitory concentration (IC50) was found to be 2.2 µM in data set [1] and 2.4 µM in data set [4]. In addition, in data set [2], the IC50 at 72 h turned out to be 1.4 µM.
As for `COc1ccc2[nH]c3c(C(=O)NCCN)c4ccncc4c(C)c3c2c1`, the half-maximal inhibitory concentration (IC50) in data set [4] was found to be 1.04 µM.
Regarding `CNC(=O)NCCNCCNC(=O)c1c2cc[n+](C)cc2c(C)c2c1[nH]c1ccccc12`, the IC50 was 78 µM in data set [1] and over 100 µM in data set [4]. In addition, the IC50 at 72 h in [2] was 45 µM.
As to `Cc1c2cnccc2c(C(=O)NCCCCN)c2[nH]c3ccccc3c12`, the Ka in data set [5] amounted to 0.279 ×10⁵ /M; in data set [6], 0.733 ×10⁵ /M.
As for `Cc1c2c[n+](C)ccc2c(C(=O)NCCCCCN)c2[nH]c3ccccc3c12`, the result in the data set on Salmonidae was Active. For the same compound, the IC50 was 21 µM in [1] and over 100 µM in [4]. In addition, the 50% inhibitory concentration (IC50) at 72 h in data set [2] was 32 µM.
As to `CNC(=O)NCCNC(=O)c1c2cc[n+](C)cc2c(C)c2c1[nH]c1ccccc12`, the result in the data set with Salmonidae was Active. Moreover, the IC50 in data set [1] and in data set [4] was over 100 µM throughout. The IC50 at 72 h in [2] is over 100 µM.
`COC(=O)c1c2cc[n+](CCN)cc2c(C)c2c1[nH]c1ccccc12.[Cl-]`: the result in the data set with Salmonidae was Active. Also, in data set [1], the IC50 is 0.52 µM. The half-inhibitory concentration (IC50) at 72 h in data set [2] came to 0.78 µM. The “Ratio IC50” value is 13 - 37 with HeLa S3 and 3 - 24 in [3].
In the case of `CNC(=O)NCCOCC[n+]1ccc2c(C(=O)OC)c3[nH]c4ccccc4c3c(C)c2c1`, the outcome in the data set with Salmonidae was Active. For the same compound, the Ka in [5] amounted to 7.41 ×10⁵ /M; in data set [6] it was 14.8 ×10⁵ /M.
For the compound `CNC(=O)NCCOCC[n+]1ccc2c(C)c3c(c(C)c2c1)c1cc(O)ccc1n3C`, the result with Salmonidae was Active. The IC50 in data set [1] came to 2.7 µM. In addition, the IC50 at 72 h in [2] was 1.6 µM.
`Cc1c2cc[n+](C)cc2c(C)c2c1[nH]c1ccccc12`: in the data set with Salmonidae, the outcome was Active. Further, the IC50 in data set [1] was found to be 0.7 µM; in [4], 2.9 µM. In data set [2], the IC50 at 72 h is 2 µM.
Consider `Cc1c2cnccc2c(C)c2c1c1ccccc1n2C`, for which, in the data set on Salmonidae, the result was Active. Besides, the IC50 in data set [1] amounted to 0.5 µM; in data set [4], 0.93 µM.
In the case of `Cc1c2c[n+](C)ccc2c(C(=O)NCCOCCN)c2[nH]c3ccccc3c12`, the result in the data set on Salmonidae was Active. Further, the IC50 in data set [1] was 48 µM; in data set [4] it was over 100 µM. Besides, the 50% inhibitory concentration (IC50) at 72 h in [2] was 60 µM.
Take `Cc1c2c[n+](C)ccc2c(C(=O)NCCCCN)c2[nH]c3ccccc3c12`: the result with Salmonidae was Active. For the same compound, the IC50 in data set [1] and in [4] was over 100 µM throughout. The half-inhibitory concentration (IC50) at 72 h in [2] was over 100 µM.
`Cc1c2c[n+](CCOCCN)ccc2c(C)c2c1c1cc(O)ccc1n2C`: the outcome in the data set with Salmonidae was Active. Moreover, the Ka in data set [5] amounted to 102 ×10⁵ /M; in [6], 311 ×10⁵ /M; in data set [7] it was 311 ×10⁵ /M; in data set [8], 162 ×10⁵ /M. Also, in [9], the Ratio was in the range of 0.4 to 0.5.
Turning to `COC(=O)c1c2cc[n+](CCNCCN)cc2c(C)c2c1[nH]c1ccccc12`, the outcome with Salmonidae was Active. The 50% inhibitory concentration (IC50) in [1] came to 1.2 µM. Moreover, the IC50 at 72 h in [2] is 1.87 µM.
With `CNC(=O)NCCCNC(=O)c1c2cc[n+](C)cc2c(C)c2c1[nH]c1ccccc12`, the outcome in the data set on Salmonidae was Active. The values for the IC50 in data set [1] and in [4] were 34 µM and over 22 µM, respectively. The IC50 at 72 h in data set [2] amounted to 31 µM.
The corresponding values for `COC(=O)c1c2cc[n+](C)cc2c(C)c2c1[nH]c1ccccc12` are “Active”, 1 µM, 1.2 µM and 1.2 µM.
The corresponding values for `CNC(=O)NCCCCCNC(=O)c1c2cc[n+](C)cc2c(C)c2c1[nH]c1ccccc12` are “Active”, 80 µM, over 100 µM and 37 µM.
Take `Cc1c2cc[n+](CCOCCN)cc2c(C)c2c1[nH]c1ccccc12.[Cl-]`: the result with Salmonidae was Active. The half-maximal inhibitory concentration (IC50) in [1] was 0.8 µM. In addition, in data set [2], the IC50 at 72 h was 8.8 µM. Further, the “Ratio IC50” value was 13 - 37 in the data set on HeLa S3 and 3 - 24 in [3].
In the case of `Cc1c2ccncc2c(C)c2c1[nH]c1ccc(O)cc12`, the result in the data set on Salmonidae was Active. For the same compound, the IC50 in [1] was found to be 0.44 µM. Besides, the IC50 at 72 h in data set [2] turned out to be 0.9 µM.
For the compound `CNC(=O)NCCNC(=O)c1c2ccncc2c(C)c2c1[nH]c1ccc(OC)cc12`, the IC50 in data set [4] amounted to 7.6 µM.
In the case of `COc1ccc2[nH]c3c(C(=O)NCCN)c4cc[n+](C)cc4c(C)c3c2c1`, the result in the data set on Salmonidae was Active. Also, the values for the 50% inhibitory concentration (IC50) in data set [1] and in data set [4] were 58 µM and over 100 µM, respectively.
On to `Cc1c2c[n+](C)ccc2c(C(=O)NCCN)c2[nH]c3ccccc3c12`, for which, in the data set on Salmonidae, the result was Active. For the same compound, the IC50 in data set [1] is 55 µM; in data set [4], over 100 µM. Further, the half-maximal inhibitory concentration (IC50) at 72 h in data set [2] is 70 µM.
With `CNC(=O)NCCOCC[n+]1ccc2c(C)c3[nH]c4ccccc4c3c(C)c2c1`, the outcome with Salmonidae was Active. Also, the Ka in data set [5] was determined as 3.59 ×10⁵ /M; in data set [6], 9.9 ×10⁵ /M; in [7], 9.92 ×10⁵ /M; in data set [8], 5.99 ×10⁵ /M. Further, in [9], the Ratio is 0.4 to 0.5.
In the case of `Cc1c2ccncc2c(C)c2c1[nH]c1ccccc12` [ELLIPTECINE], in the data set with Salmonidae, the result was Active. Also, the IC50 came out at 2 µM in [1] and 2.1 µM in [4]. The IC50 at 72 h in [2] was 0.3 µM.
In the case of `CNC(=O)NCCNC(=O)c1c2cc[n+](C)cc2c(C)c2c1[nH]c1ccc(OC)cc12`, the outcome with Salmonidae was Active. Besides, the 50% inhibitory concentration (IC50) in data set [4] is 32 µM.
Regarding `Cc1c2c[n+](CCN)ccc2cc2[nH]c3ccccc3c12`, the result in the data set on Salmonidae was Active. The Ka came to 4.29 ×10⁵ /M in data set [5] and 8.33 ×10⁵ /M in [6].
As to `Cc1c2c[n+](CCCCCN)ccc2c(C)c2c1c1cc(O)ccc1n2C.[Cl-]`, in the data set on Salmonidae, the result was Active. For the same compound, in data set [1], the IC50 came out at 1.4 µM. Also, the entries for the “Ratio IC50” value (in the data set on HeLa S3; in data set [3]) were 13 - 37 and 3 - 24, respectively.
With `CNC(=O)NCCCCNC(=O)c1c2ccncc2c(C)c2c1[nH]c1ccccc12`, the Ka in data set [5] worked out at 0.185 ×10⁵ /M; in [6] it was 0.427 ×10⁵ /M.
With `CNC(=O)NCCCCNC(=O)c1c2cc[n+](C)cc2c(C)c2c1[nH]c1ccccc12`, the result in the data set on Salmonidae was Active. Moreover, the IC50 is over 88 µM in data set [1] and 96 µM in data set [4]. For the same compound, in data set [2], the concentration for half-maximal inhibition (IC50) at 72 h is over 100 µM.
`CNC(=O)NCCOCC[n+]1ccc2c(C)c3[nH]c4ccc(O)cc4c3c(C)c2c1.[Cl-]`: the result in the data set with Salmonidae was Active. Moreover, the IC50 in data set [1] turned out to be 2.2 µM. In data set [2], the IC50 at 72 h turned out to be 5 µM. Also, the “Ratio IC50” value was 13 - 37 in the data set with HeLa S3 and 3 - 24 in data set [3].
As to `CNC(=O)NCCOCCNC(=O)c1c2cc[n+](C)cc2c(C)c2c1[nH]c1ccccc12`, the result in the data set on Salmonidae was Active. The IC50 in data set [1] was 41 µM. The IC50 at 72 h in data set [2] turned out to be 18 µM.
Regarding `Cc1c2c[n+](C)ccc2c(C(=O)NCCCN)c2[nH]c3ccccc3c12`, in the data set with Salmonidae, the outcome was Active. Moreover, the 50% inhibitory concentration (IC50) in data set [1] was 26 µM; in data set [4], over 26 µM. Further, the IC50 at 72 h in [2] stood at 42 µM.
As to `Cc1c2c[n+](C)ccc2c(C(=O)NCCNCCN)c2[nH]c3ccccc3c12`, the outcome in the data set with Salmonidae was Active. Further, the IC50 in [1] is over 100 µM. Moreover, in data set [2], the IC50 at 72 h stood at 86 µM.
For `Cc1c2cc[n+](CCN)cc2c(C)c2c1[nH]c1ccccc12`, the result with Salmonidae was Active. Besides, the IC50 in data set [1] worked out at 3.2 µM; in [4], 6.58 µM.

The values above are taken from ChEMBL document CHEMBL3877309, “Determination of binding modes and binding constants for the complexes of 6H-pyrido[4,3-b]carbazole derivatives with DNA” (Bioorg Med Chem, 2017).
